Experimental findings from ChEMBL document CHEMBL3217433, “Identification of pyrazolo-pyrimidinones as GHS-R1a antagonists and inverse agonists for the treatment of obesity” (Medchemcomm, 2013) are described below.

Data set [1] is described as follows: Octanol-buffer partition coefficient, log D of the compound at pH 7.4 after 30 mins by shake-flask method. Format: physicochemical.
Data set [2] can be described thus: Dissociation constant, pKa of the compound. Format: physicochemical.
Data set [3] in a line: Intrinsic clearance in human liver microsomes. Format: ADME. To be noted: read-out: CLH.
The nature of data set [4]: Lipophilicity, log D of the compound by HPLC analysis. Format: physicochemical.
Data set [5] in a line: Aqueous solubility of the compound in phosphate buffer at pH 7.4 after 24 hrs by LC-UV analysis. Format: physicochemical.
Data set [6] in a line: Drug uptake in mouse brain at 20 mg/kg, po measured at 1 hr. Format: ADME, organism-based. On the set-up: dose 20 mg/kg, route oral. As to conditions: read-out: Drug uptake.
Data set [7] can be described thus: Plasma concentration in mouse at 20 mg/kg, po measured at 1 hr. Format: ADME, organism-based. On the set-up: dose 20 mg/kg, route oral.

Values after ≈ are worked out from the molar mass of the structure shown.

In general, logD refers to the decadic logarithm of the distribution of all forms, ionised or not, between an organic phase and buffer at a given pH. For orientation: pKa means the pH at which an ionisable group is half protonated. Read a low pKa as a group that gives up its proton readily. For the compound `COCCN1CCC[C@H](Cn2c(-c3cccnc3C)nc3cn(-c4cccc(OC)c4)nc3c2=O)C1`, in data set [1], the logD at 0.5 h stood at 1.3. This compound showed a pKa in data set [2] of 8.4.

In the case of `Cc1ccccc1-c1nc2cn(-c3ccc(C#N)cc3)nc2c(=O)n1CC1CCCN(C(C)C)C1` (racemic), the pKa in data set [2] worked out at 10.

As to `Cc1ncccc1-c1nc2cn(-c3ccc(C#N)cc3)nc2c(=O)n1CC1CCCN(C2COC2)C1` (racemic), in data set [1], the logD at 0.5 h came out at 1.2. The pKa in data set [2] turned out to be 6.4.

Take `COc1cccc(-n2cc3nc(CC(C)C)n(C[C@H]4CCCN(C[C@H]5CCCO5)C4)c(=O)c3n2)c1`: the microsomal CLint in data set [3] turned out to be 60 µL/min/mg. For the same compound, the logD at 0.5 h in data set [1] is 3.1.

For `CCOc1cccc(-n2cc3nc(-c4cccnc4C)n(C[C@H]4CCCN(C[C@H]5CCCO5)C4)c(=O)c3n2)c1`, the microsomal CLint in data set [3] was 30 µL/min/mg. This compound showed a logD at 0.5 h in data set [1] of 2.5.

Compound `Cc1ccccc1-c1nc2cn(-c3ccc(Cl)cc3)nc2c(=O)n1CC1CCCN(C(C)C)C1` (racemic) gave a logD in data set [4] of 3.2. Also, the pKa in data set [2] is 10.

In the case of `COc1ccc(-n2cc3nc(-c4ccccc4C)n(CC4CCCN(C(C)C)C4)c(=O)c3n2)cc1` (racemic), in data set [1], the logD at 0.5 h turned out to be 2.4. The pKa in data set [2] is 10.

Take `COCCN1CCC[C@@H](Cn2c(-c3ccccc3C)nc3cc(-c4ccc(Cl)cc4)sc3c2=O)C1`: in data set [1], the logD at 0.5 h is greater than 4.3. The compound also had a logD in data set [4] of 5.6. Further, the pKa in data set [2] is 8.5.

In the case of `COc1ccc(-n2cc3nc(-c4cccnc4C)n(C[C@H]4CCCN(C[C@H]5CCCO5)C4)c(=O)c3n2)cc1`, the microsomal CLint in data set [3] stood at 21 µL/min/mg. In data set [1], the logD at 0.5 h was 1.9.

Turning to `Cc1ncccc1-c1nc2cn(-c3cccc(OC(F)F)c3)nc2c(=O)n1C[C@H]1CCCN(C[C@H]2CCCO2)C1`, the microsomal CLint in data set [3] is 33 µL/min/mg. Moreover, the logD at 0.5 h in data set [1] worked out at 2.2.

In turn, `COCCN1CCC[C@@H](Cn2c(-c3ccccc3C)nc3nc(-c4ccc(Cl)cc4)sc3c2=O)C1` showed a logD at 0.5 h in data set [1] of 3.5. The compound also had a pH-dependent lipophilicity (logD) in data set [4] of 5.1. This compound also had a pKa in data set [2] of 9.2.

Turning to `COCCN1CCC[C@@H](Cn2c(-c3ccccc3C)nc3cn(-c4ccc(Cl)cc4)nc3c2=O)C1`, the logD at 0.5 h in data set [1] turned out to be 3.3. This compound also yielded a logD in data set [4] of 3.7. In data set [2], this compound had a pKa of 8.5.

Compound `Cc1ccccc1-c1nc2cn(-c3cccc(C#N)c3)nc2c(=O)n1CC1CCCN(C(C)C)C1` (racemic) registered a logD at 0.5 h in data set [1] of 1.8. The same compound showed a pKa in data set [2] of 9.9.

As for `COCCN1CCC[C@H](Cn2c(-c3cccnc3C)nc3cn(C4CCCCC4)nc3c2=O)C1`, in data set [1], the logD at 0.5 h was 1.4.

Usually solubility stands for the dissolved amount per volume that the medium holds. A high value points to a readily soluble substance. Regarding `Cc1ccccc1-c1nc2ccc(-c3ccc(Cl)cc3)cc2c(=O)n1C[C@H]1CCCN(C(C)C)C1`, the solubility at 24 h in data set [5] was determined as 45 µM (≈ 21.9 µg/mL). Besides, the logD at 0.5 h in data set [1] was greater than 4.3. The logD in data set [4] was 5.

As to `COc1cccc(-n2cc3nc(C)n(C[C@H]4CCCN(C[C@H]5CCCO5)C4)c(=O)c3n2)c1`, the microsomal CLint in data set [3] came out at 16 µL/min/mg. Besides, in data set [1], the logD at 0.5 h was 1.9.

In data set [1], `Cc1ccccc1-c1nc2cn(-c3cccc(Cl)c3)nc2c(=O)n1CC1CCCN(C(C)C)C1` (racemic) had a logD at 0.5 h of 3. This compound also showed a pKa in data set [2] of 9.8.

For `CCCOc1cccc(-n2cc3nc(-c4cccnc4C)n(C[C@H]4CCCN(C[C@H]5CCCO5)C4)c(=O)c3n2)c1`, in data set [3], the microsomal CLint amounted to 67 µL/min/mg. In addition, the log distribution coefficient (logD) at 0.5 h in data set [1] stood at 2.9.

On to `Cc1ncccc1-c1nc2cn(-c3cccc(OC(C)C)c3)nc2c(=O)n1C[C@H]1CCCN(C[C@H]2CCCO2)C1`, for which, in data set [3], the microsomal CLint came out at 51 µL/min/mg. Moreover, the logD at 0.5 h in data set [1] amounted to 2.7.

`COCCN1CCCC(Cn2c(-c3cccnc3C)nc3cn(-c4ccc(C#N)cc4)nc3c2=O)C1` (racemic): the logD at 0.5 h in data set [1] came out at 1.1. This compound also returned a pKa in data set [2] of 8.5.

In the case of `Cc1ncccc1-c1nc2cn(-c3ccccc3)nc2c(=O)n1C[C@H]1CCCN(C[C@H]2CCCO2)C1`, the microsomal CLint in data set [3] was determined as 15 µL/min/mg. The compound also came in with a logD at 0.5 h in data set [1] of 1.7.

On to `Cc1ccccc1-c1nc2cn(-c3ccc(F)cc3)nc2c(=O)n1CC1CCCN(C(C)C)C1` (racemic), for which, in data set [1], the logD at 0.5 h worked out at 2.3. This compound also came in with a pKa in data set [2] of 10.

`Cc1ccccc1-c1nc2cc(-c3ccc(Cl)cc3)sc2c(=O)n1CC1CCCN(C(C)C)C1` (racemic): in data set [4], the logD is 4.8.

On to `COc1cccc(-n2cc3nc(-c4cccnc4C)n(C[C@H]4CCCN(C[C@H]5CCCO5)C4)c(=O)c3n2)c1`, for which the concentration at 1 h was found to be 240 nM in data set [6] and 1200 nM in data set [7]. Further, the microsomal CLint in data set [3] was 17 µL/min/mg. Moreover, the solubility at 24 h in data set [5] was greater than 1500 µM. The compound also showed a logD at 0.5 h in data set [1] of 2.

As to `COc1cccc(-n2cc3nc(-c4cccnc4C)n(C[C@H]4CCCN(C(C)C)C4)c(=O)c3n2)c1`, the solubility at 24 h in data set [5] is greater than 2700 µM. The compound also registered a logD at 0.5 h in data set [1] of 1.3. Besides, the pKa in data set [2] came to 9.7.

Regarding `COc1cccc(-n2cc3nc(-c4ccccc4C)n(CC4CCCN(C(C)C)C4)c(=O)c3n2)c1` (racemic), in data set [1], the logD at 0.5 h turned out to be 2.5. The pKa in data set [2] was found to be 10.
